Measured values as given in patent US20150266850A1 (E.I.DU PONT DE NEMOURS AND COMPANY, priority 2012, published 2015).
Marks after values point to notes of the source that are not given here.

What was measured:
Format in all cases: in vivo
[1] = system: Erysiphe graminis f. sp. tritici; assay: Test A: wheat powdery mildew, preventive spray on wheat seedlings, visual disease rating; conditions: 100 = 100% disease control; for pest or weed control at 40 ppm: Blumeria graminis, 192 h
From the text: (§1) General protocol for preparing test suspensions for Tests A-E: the test compounds were first dissolved in acetone in an amount equal to 11% of the final volume and then suspended at the desired concentration (in ppm) in acetone and purified water (50/50 mix by volume) containing 250 ppm of the surfactant Trem® 014 (polyhydric alcohol esters). The resulting test suspensions were then used in Tests A-E. Spraying a 200 ppm test suspension to the point of run-off on the test plants was the equivalent of a rate of 800 g/ha.
The test suspension was sprayed to the point of run-off on wheat seedlings. The following day the seedlings were inoculated with a spore dust of Erysiphe graminis f. sp. tritici, (the causal agent of wheat powdery mildew) and incubated in a growth chamber at 20° C. for 8 days, after which time disease ratings were visually made.
(§2) Results for Tests A-E are given in Table A. In the Table, a rating of 100 indicates 100% disease control and a rating of 0 indicates no disease control (relative to the controls). A dash (-) indicates no test results. All results are for 200 ppm except where followed by an “*”, which indicates 40 ppm or “**”, which indicates 50 ppm.

[2] = system: Puccinia recondita f sp. tritici; assay: Test B: wheat leaf rust, preventive spray on wheat seedlings, visual disease rating; conditions: 100 = 100% disease control; for pest or weed control at 40 ppm: 192 h
From the text: as §1
The test suspension was sprayed to the point of run-off on wheat seedlings. The following day the seedlings were inoculated with a spore suspension of Puccinia recondita f sp. tritici (the causal agent of wheat leaf rust) and incubated in a saturated atmosphere at 20° C. for 24 h, and then moved to a growth chamber at 20° C. for 7 days, after which time disease ratings were visually made.
as §2

Septoria tritici = assay: Test C: wheat leaf blotch, preventive spray on wheat seedlings, visual disease rating; conditions: 100 = 100% disease control; for pest or weed control at 40 ppm: Zymoseptoria tritici, 504 h
From the text: as §1
The test suspension was sprayed to the point of run-off on wheat seedlings. The following day the seedlings were inoculated with a spore suspension of Septoria tritici (the causal agent of wheat leaf blotch) and incubated in a saturated atmosphere at 24° C. for 48 h, and then moved to a growth chamber at 20° C. for 19 days, after which time disease ratings were visually made.
as §2

Septoria nodorum = assay: Test D: wheat glume blotch, preventive spray on wheat seedlings, visual disease rating; conditions: 100 = 100% disease control; for pest or weed control at 40 ppm: Parastagonospora nodorum, 216 h
From the text: as §1
The test suspension was sprayed to the point of run-off on wheat seedlings. The following day the seedlings were inoculated with a spore suspension of Septoria nodorum (the causal agent of wheat glume blotch) and incubated in a saturated atmosphere at 20° C. for 48 h, and then moved to a growth chamber at 20° C. for 7 days, after which time disease ratings were visually made.
as §2

Botrytis cinerea = assay: Test E: tomato botrytis, preventive spray on tomato seedlings, visual disease rating; conditions: 100 = 100% disease control
From the text: as §1
The test suspension was sprayed to the point of run-off on tomato seedlings. The following day the seedlings were inoculated with a spore suspension of Botrytis cinerea (the causal agent of tomato botrytis) and incubated in saturated atmosphere at 20° C. for 48 h, and then moved to a growth chamber at 27° C. for 3 additional days, after which time disease ratings were visually made.
as §2

| Molecule | Test A disease control rating ([1]; 40 ppm (*)) | Test B disease control rating ([2]; 40 ppm (*)) | Test D disease control rating (Septoria nodorum; 40 ppm (*)) | Test E disease control rating (Botrytis cinerea; 40 ppm (*)) | other results |
| --- | --- | --- | --- | --- | --- |
| COC(=O)NCc1cc(-n2ncc(-c3ccc(C)cc3OC)n2)ccc1C [Cmpd 7] |  |  |  |  | Test A disease control rating ([1]; 200 ppm): 100%; Test B disease control rating ([2]; 200 ppm): 100%; Test C disease control rating (Septoria tritici; 200 ppm): 100%; Test D disease control rating (Septoria nodorum; 200 ppm): 100%; Test E disease control rating (Botrytis cinerea; 200 ppm): 26% |
| COC(=O)NCc1cc(-c2ccn(-c3ccc(OC)cc3F)n2)ccc1C [Cmpd 19] |  |  |  |  | Test A disease control rating ([1]; 200 ppm): 100%; Test B disease control rating ([2]; 200 ppm): 100%; Test C disease control rating (Septoria tritici; 200 ppm): 100%; Test E disease control rating (Botrytis cinerea; 200 ppm): 37% |
| C#Cc1cc(OC)ccc1-c1cnn(-c2ccc(C)c(CNC(=O)OC)c2)n1 [Cmpd 47] | 99* % | 100* % | 100* % | 0* % |  |
| COC(=O)NCc1cc(-n2ncc(-c3ccc(OC)cc3OCC#N)n2)ccc1C [Cmpd 73] | 99* % | 100* % | 100* % | 0* % |  |
| C#CCOc1cc(OC)ccc1-c1cnn(-c2ccc(C)c(CNC(=O)OC)c2)n1 [Cmpd 74] | 98* % | 100* % | 100* % | 8* % |  |
| C=CCOc1cc(OC)ccc1-c1cnn(-c2ccc(C)c(CNC(=O)OC)c2)n1 [Cmpd 75] | 90* % | 100* % | 100* % | 8* % |  |
| COC(=O)NCc1cc(-n2ccc(-c3ccc(OC)cc3C3CC3)n2)ccc1C [Cmpd 82] | 99* % | 100* % | 100* % | 0* % |  |
| CCc1cc(OC)ccc1-c1ccn(-c2ccc(C)c(CNC(=O)OC)c2)n1 [Cmpd 83] | 99* % | 100* % | 100* % | 0* % |  |
| COC(=O)NCc1cc(-n2ncc(-c3ccc(OC)cc3[N+](=O)[O-])n2)ccc1C [Cmpd 85] | 99* % | 100* % | 100* % | 0* % |  |
| CCOc1cc(OC)ccc1-c1cnn(-c2ccc(C)c(CNC(=O)OC)c2)n1 [Cmpd 88] | 100* % | 100* % | 100* % | 0* % |  |
| COC(=O)NCc1cc(-n2ccc(-c3ccc(I)cc3Cl)n2)ccc1C [Cmpd 92] | 99* % | 100* % | 100* % | 33* % |  |
| COC(=O)NCc1cc(-c2ccn(-c3ccc(C#N)cc3C#N)n2)ccc1C [Cmpd 93] |  |  |  |  | Test A disease control rating ([1]; 200 ppm): 0%; Test B disease control rating ([2]; 200 ppm): 0%; Test D disease control rating (Septoria nodorum; 200 ppm): 64%; Test E disease control rating (Botrytis cinerea; 200 ppm): 0% |
| COC(=O)NCc1cc(-n2ncc(-c3ccc(I)cc3OC)n2)ccc1C [Cmpd 95] | 98* % | 100* % | 100* % | 0* % |  |
| COC(=O)NCc1cc(-n2ncc(-c3ccc(OC)cc3I)n2)ccc1C [Cmpd 96] | 99* % | 100* % | 100* % | 70* % |  |
| COC(=O)NCc1cc(-n2ncc(-c3ccc(C)cc3OCC#N)n2)ccc1C [Cmpd 98] | 95* % | 100* % | 100* % | 6* % |  |
| C#Cc1ccc(-c2cnn(-c3ccc(C)c(CNC(=O)OC)c3)n2)c(OC)c1 [Cmpd 99] | 99* % | 100* % | 100* % | 14* % |  |
| CCOc1cc(C)ccc1-c1ccn(-c2ccc(C)c(CNC(=O)OC)c2)n1 [Cmpd 138] | 99* % | 100* % | 100* % |  | Test C disease control rating (Septoria tritici; 40 ppm (*)): 95* % |
| COC(=O)NCc1cc(-n2ccc(-c3ccc(C(C)=O)cc3C)n2)ccc1C [Cmpd 140] | 91* % | 100* % | 100* % |  | Test C disease control rating (Septoria tritici; 40 ppm (*)): 94* % |
| COC(=O)NCc1cc(-n2ncc(-c3ccc(Br)cc3OC)n2)ccc1C [Cmpd 141] | 99* % | 100* % | 100* % |  | Test C disease control rating (Septoria tritici; 40 ppm (*)): 97* % |
| CCOc1ccc(-c2ccn(-c3ccc(C)c(CNC(=O)OC)c3)n2)c(C)n1 [Cmpd 142] | 99* % | 100* % | 100* % |  | Test C disease control rating (Septoria tritici; 40 ppm (*)): 99* % |
| COC(=O)NCc1cc(-n2ncc(-c3ccc(OC)cc3Br)n2)ccc1C [Cmpd 143] | 99* % | 100* % | 100* % |  | Test C disease control rating (Septoria tritici; 40 ppm (*)): 99* % |
| COC(=O)NCc1cc(-n2ncc(-c3ccc(OC)cc3I)[n+]2[O-])ccc1C [Compound 94] |  |  |  |  | pest or weed control at 40 ppm ([1]; 40 ppm (*)): 98%; pest or weed control at 40 ppm ([2]; 40 ppm (*)): 100%; pest or weed control at 40 ppm (Septoria nodorum; 40 ppm (*)): 100%; pest or weed control at 40 ppm (Botrytis cinerea; Botrytis cinerea, 120 h, 40 ppm (*)): 11% |
| COC(=O)NCc1cc(-n2ncc(-c3ccc(C)cc3C)n2)ccc1C [Compound 97] | 99* % | 100* % | 100* % | 43* % |  |
| COC(=O)NCc1cc(-c2ccn(-c3ccc(C)nc3C)n2)ccc1C [Compound 114, methyl N-[[5-[1-(2,6-dimethyl-3-pyridinyl)-1H-pyrazol-3-yl]-2-methylphenyl]methyl]carbamate] |  |  |  |  | pest or weed control at 40 ppm ([1]; 40 ppm (*)): 90%; pest or weed control at 40 ppm ([2]; 40 ppm (*)): 100%; pest or weed control at 40 ppm (Septoria tritici; 40 ppm (*)): 86%; pest or weed control at 40 ppm (Septoria nodorum; 40 ppm (*)): 100% |
| COC(=O)NCc1cc(-n2ccc(-c3ccc(C)nc3C)n2)ccc1C [Compound 130, methyl N-[[5-[3-(2,6-dimethyl-3-pyridinyl)-1H-pyrazol-1-yl]-2-methylphenyl]methyl]carbamate] |  |  |  |  | pest or weed control at 40 ppm ([1]; 40 ppm (*)): 96%; pest or weed control at 40 ppm ([2]; 40 ppm (*)): 99%; pest or weed control at 40 ppm (Septoria tritici; 40 ppm (*)): 86%; pest or weed control at 40 ppm (Septoria nodorum; 40 ppm (*)): 100% |
| methyl N-[[5-[3-(6-methoxy-2-methyl-3-pyridinyl)-1H-pyrazol-1-yl]-2-methylphenyl]methyl]carbamate [Compound 115] | 100* % | 100* % | 100* % |  | Test C disease control rating (Septoria tritici; 40 ppm (*)): 99* % |
